22 compounds from US9040545B2, “Heterocyclyl pyrazolopyrimidine analogues as selective JAK inhibitors” (Cellzome Limited, priority 2010, dated 2015) can be followed below.

SMILES strings stand for the structures. Some results are limits rather than exact numbers.

For one test, the target named is T1, Aurora A (Homo sapiens, UniProt O14965).
T1 construct: cell lysates from Jurkat cells (ATCC TIB-152) used; endogenous in cells; host or cells: Jurkat cells (ATCC TIB-152), treated with pervanadate
T1 sequence (O14965 1-403): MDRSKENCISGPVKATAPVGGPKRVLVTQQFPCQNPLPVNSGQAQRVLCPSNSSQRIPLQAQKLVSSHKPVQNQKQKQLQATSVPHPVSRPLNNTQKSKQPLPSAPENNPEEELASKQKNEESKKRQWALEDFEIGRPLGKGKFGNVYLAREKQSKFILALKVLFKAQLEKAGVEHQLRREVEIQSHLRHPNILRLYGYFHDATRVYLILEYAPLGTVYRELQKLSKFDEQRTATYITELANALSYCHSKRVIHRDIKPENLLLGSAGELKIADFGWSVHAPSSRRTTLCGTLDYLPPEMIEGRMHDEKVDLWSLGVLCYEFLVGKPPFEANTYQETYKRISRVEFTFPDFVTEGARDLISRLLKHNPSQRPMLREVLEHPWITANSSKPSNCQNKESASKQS
The test is described as follows: Kinobeads assay, Aurora A. The format is binding. The settings on record: for IC50: lysate of pervanadate-treated Jurkat cells, read-out: Inhibition values (IC50) Aur A.

A further test addresses T2, JAK2 (Homo sapiens, UniProt O60674).
T2 construct: endogenous in cells; host or cells: mixed Molt4/Ramos lysate (1:2)
The test is described as follows: Kinobeads assay, JAK2. The format is binding. The settings on record: mixed Molt4/Ramos lysate, read-out: Inhibition values (IC50) JAK2. The essentials: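 Competition binding in mixed Molt4/Ramos cell lysate (1:2, 10 mg/mL protein) with Kinobeads carrying immobilized aminopyrido-pyrimidine ligand, 3 h in cold room; 9-step 1:3 compound dilution series from 5 mM DMSO stock. Bead-bound JAK2/JAK3 eluted and quantified by antibody dot blot with infrared detection; IC50 from dose-response curves.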

T2 sequence (O60674 whole entry): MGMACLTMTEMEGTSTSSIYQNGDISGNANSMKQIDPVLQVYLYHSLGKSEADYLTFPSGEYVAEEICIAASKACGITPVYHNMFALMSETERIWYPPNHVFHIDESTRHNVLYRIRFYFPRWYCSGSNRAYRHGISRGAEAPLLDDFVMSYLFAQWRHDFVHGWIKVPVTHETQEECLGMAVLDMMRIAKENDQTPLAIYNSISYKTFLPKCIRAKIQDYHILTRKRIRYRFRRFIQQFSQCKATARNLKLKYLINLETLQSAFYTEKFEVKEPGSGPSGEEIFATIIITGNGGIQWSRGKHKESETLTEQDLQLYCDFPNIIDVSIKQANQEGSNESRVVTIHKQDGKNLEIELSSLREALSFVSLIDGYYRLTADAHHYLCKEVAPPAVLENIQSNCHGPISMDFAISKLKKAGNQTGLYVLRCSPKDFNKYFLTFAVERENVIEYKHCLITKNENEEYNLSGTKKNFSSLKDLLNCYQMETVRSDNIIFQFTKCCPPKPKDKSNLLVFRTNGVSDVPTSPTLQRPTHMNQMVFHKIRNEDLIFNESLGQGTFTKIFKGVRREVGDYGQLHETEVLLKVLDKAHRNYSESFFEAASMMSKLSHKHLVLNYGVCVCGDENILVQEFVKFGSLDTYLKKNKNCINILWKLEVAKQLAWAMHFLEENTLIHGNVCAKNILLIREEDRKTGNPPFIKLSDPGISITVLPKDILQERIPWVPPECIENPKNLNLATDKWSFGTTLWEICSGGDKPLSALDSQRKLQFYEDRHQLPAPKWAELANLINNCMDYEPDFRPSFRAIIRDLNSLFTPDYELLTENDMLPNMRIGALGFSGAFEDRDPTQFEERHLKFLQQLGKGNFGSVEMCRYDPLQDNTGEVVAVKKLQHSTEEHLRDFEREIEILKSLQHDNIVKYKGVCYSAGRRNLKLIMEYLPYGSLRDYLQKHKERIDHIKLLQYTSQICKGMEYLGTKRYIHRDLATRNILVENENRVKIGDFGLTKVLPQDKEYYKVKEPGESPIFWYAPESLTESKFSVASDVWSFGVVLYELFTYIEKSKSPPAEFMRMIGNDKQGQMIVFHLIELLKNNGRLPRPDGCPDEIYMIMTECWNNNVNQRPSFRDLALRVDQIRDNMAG

Consider `CNCCCn1cc(Nc2ncc3cnn(Cc4cc(F)cc(N5CCOCC5=O)c4)c3n2)cn1` [Example 99, 4-(3-fluoro-5-((6-((1-(3-(methylamino)propyl)-1H-pyrazol-4-yl)amino)-1H-pyrazolo[3,4-d]pyrimidin-1-yl)methyl)phenyl)morpholin-3-one], for which the “JAK3/AurA Fold Selectivity” value on Aurora A is 3-10 Fold. The figures for the IC50 on Aurora A and on JAK2 were under 100 nM and 1000 to 10000 nM, respectively.
For `Cn1cc(Nc2ncc3cnn(Cc4cccc(N5CCN(S(C)(=O)=O)CC5)c4)c3n2)cn1` [Example 100, N-(1-methyl-1H-pyrazol-4-yl)-1-(3-(4-(methylsulfonyl)piperazin-1-yl)benzyl)-1H-pyrazolo[3,4-d]pyrimidin-6-amine], in that order: 3-10 Fold, 100 to 1000 nM and at least 10000 nM.
Taken in the same sequence, the figures for `O=C1COCCN1c1cc(F)cc(Cn2ncc3cnc(Nc4cnn(CC5CCNC5)c4)nc32)c1` (stereo not drawn) [Example 101, 4-(3-fluoro-5-((6-((1-(pyrrolidin-3-ylmethyl)-1H-pyrazol-4-yl)amino)-1H-pyrazolo[3,4-d]pyrimidin-1-yl)methyl)phenyl)morpholin-3-one] were 10-50 Fold, under 100 nM and 1000 to 10000 nM.
With `O=C1COCCN1c1cc(F)cc(Cn2ncc3cnc(Nc4cnn(C5CCNCC5)c4)nc32)c1` [Example 102, 4-(3-fluoro-5-((6-((1-(piperidin-4-yl)-1H-pyrazol-4-yl)amino)-1H-pyrazolo[3,4-d]pyrimidin-1-yl)methyl)phenyl)morpholin-3-one], at Aurora A, the “JAK3/AurA Fold Selectivity” value is reported as 10-50 Fold and the IC50 is under 100 nM. Further, the IC50 at JAK2 lay within 100 to 1000 nM.
On to `Cn1cc(Nc2ncc3cnn(Cc4cccc(N5CCOCC5)c4Cl)c3n2)cn1` [Example 103, 1-(2-chloro-3-morpholinobenzyl)-N-(1-methyl-1H-pyrazol-4-yl)-1H-pyrazolo[3,4-d]pyrimidin-6-amine], for which, at Aurora A, the “JAK3/AurA Fold Selectivity” value is reported as 3-10 Fold and the IC50 is under 100 nM. Besides, on JAK2, the IC50 lay within 1000 to 10000 nM.
Taken in the same sequence, the figures for `Cn1cc(Nc2ncc3cnn(Cc4cccc(N5CCC6(COC6)C5)c4)c3n2)cn1` [Example 104, 1-(3-(2-oxa-6-azaspiro[3.4]octan-6-yl)benzyl)-N-(1-methyl-1H-pyrazol-4-yl)-1H-pyrazolo[3,4-d]pyrimidin-6-amine] were 10-50 Fold, 100 to 1000 nM and at least 10000 nM.
For `O=C1CC(Cn2cc(Nc3ncc4cnn(Cc5cc(F)cc(N6CCOCC6=O)c5)c4n3)cn2)CN1` (stereo not drawn) [Example 105, 4-(3-fluoro-5-((6-((1-((5-oxopyrrolidin-3-yl)methyl)-1H-pyrazol-4-yl)amino)-1H-pyrazolo[3,4-d]pyrimidin-1-yl)methyl)phenyl)morpholin-3-one], in that order: 10-50 Fold, 100 to 1000 nM and 1000 to 10000 nM.
Taken in the same sequence, the figures for `O=C1COCCN1c1cc(F)cc(Cn2ncc3cnc(Nc4cnn(CCS(=O)(=O)NC5CC5)c4)nc32)c1` [Example 106, N-cyclopropyl-2-(4-((1-(3-fluoro-5-(3-oxomorpholino)benzyl)-1H-pyrazolo[3,4-d]pyrimidin-6-yl)amino)-1H-pyrazol-1-yl)ethanesulfonamide] were 10-50 Fold, 100 to 1000 nM and 1000 to 10000 nM.
Regarding `N#CCCn1cc(Nc2ncc3cnn(Cc4cc(F)cc(N5CCOCC5=O)c4)c3n2)cn1` [Example 107, 3-(4-((1-(3-fluoro-5-(3-oxomorpholino)benzyl)-1H-pyrazolo[3,4-d]pyrimidin-6-yl)amino)-1H-pyrazol-1-yl)propanenitrile], the “JAK3/AurA Fold Selectivity” value at Aurora A is given as 3-10 Fold. The IC50 was under 100 nM at Aurora A and 1000 to 10000 nM on JAK2.
In the case of `Cn1cc(Nc2ncc3cnn(Cc4cccc(N5CCC(=O)CC5)c4)c3n2)cn1` [Example 108, 1-(3-((6-((1-methyl-1H-pyrazol-4-yl)amino)-1H-pyrazolo[3,4-d]pyrimidin-1-yl)methyl)phenyl)piperidin-4-one], at Aurora A, the “JAK3/AurA Fold Selectivity” value was 3-10 Fold and the half-inhibitory concentration (IC50) was 100 to 1000 nM. Moreover, the IC50 at JAK2 was at least 10000 nM.
On to `O=C(Cn1cc(Nc2ncc3cnn(Cc4cc(F)cc(N5CCOCC5=O)c4)c3n2)cn1)N1CCNCC1` [Example 109, 4-(3-fluoro-5-((6-((1-(2-oxo-2-(piperazin-1-yl)ethyl)-1H-pyrazol-4-yl)amino)-1H-pyrazolo[3,4-d]pyrimidin-1-yl)methyl)phenyl)morpholin-3-one], for which, at Aurora A, the “JAK3/AurA Fold Selectivity” value is given as 3-10 Fold and the half-maximal inhibitory concentration (IC50) is under 100 nM. Also, at JAK2, the IC50 was 1000 to 10000 nM.
Regarding `Cn1cc(Nc2ncc3cnn(Cc4c(F)c(F)cc(C(=O)N5CCOCC5)c4F)c3n2)cn1` [Example 110, morpholino(2,4,5-trifluoro-3-((6-((1-methyl-1H-pyrazol-4-yl)amino)-1H-pyrazolo[3,4-d]pyrimidin-1-yl)methyl)phenyl)methanone], on Aurora A, the “JAK3/AurA Fold Selectivity” value is listed as over 50 Fold and the IC50 fell in the range of 1000 to 10000 nM. Also, the IC50 on JAK2 lay within 100 to 1000 nM.
With `O=C(c1cc(F)c(F)c(Cn2ncc3cnc(Nc4cnn(CCO)c4)nc32)c1F)N1CCOCC1` [Example 111, morpholino(2,4,5-trifluoro-3-((6-((1-(2-hydroxyethyl)-1H-pyrazol-4-yl)amino)-1H-pyrazolo[3,4-d]pyrimidin-1-yl)methyl)phenyl)methanone], at Aurora A, the “JAK3/AurA Fold Selectivity” value was 10-50 Fold and the IC50 is 100 to 1000 nM. Also, the IC50 at JAK2 fell in the range of 1000 to 10000 nM.
For `C[C@H]1COCCN1c1cccc(Cn2ncc3cnc(Nc4cnn(C)c4)nc32)c1` [Example 112, (S)-N-(1-methyl-1H-pyrazol-4-yl)-1-(3-(3-methylmorpholino)benzyl)-1H-pyrazolo[3,4-d]pyrimidin-6-amine], in that order: 10-50 Fold, 100 to 1000 nM and at least 10000 nM.
With `C[C@@H]1COCCN1c1cccc(Cn2ncc3cnc(Nc4cnn(C)c4)nc32)c1` [Example 113, (R)-N-(1-methyl-1H-pyrazol-4-yl)-1-(3-(3-methylmorpholino)benzyl)-1H-pyrazolo[3,4-d]pyrimidin-6-amine], at Aurora A, the “JAK3/AurA Fold Selectivity” value is recorded as over 50 Fold and the half-inhibitory concentration (IC50) lay in the range of 1000 to 10000 nM. The IC50 on JAK2 was at least 10000 nM.
`Cn1cc(Nc2ncc3cnn(Cc4cccc(NC5COC5)c4)c3n2)cn1` [Example 114, N-(1-methyl-1H-pyrazol-4-yl)-1-(3-(oxetan-3-ylamino)benzyl)-1H-pyrazolo[3,4-d]pyrimidin-6-amine]: on Aurora A, the “JAK3/AurA Fold Selectivity” value was 3-10 Fold and the IC50 was under 100 nM. In addition, the IC50 at JAK2 was in the range of 1000 to 10000 nM.
Taken in the same sequence, the figures for `Cn1cc(Nc2ncc3cnn(Cc4cccc(-c5cnn(C)c5)c4)c3n2)cn1` [Example 115, N-(1-methyl-1H-pyrazol-4-yl)-1-(3-(1-methyl-1H-pyrazol-4-yl)benzyl)-1H-pyrazolo[3,4-d]pyrimidin-6-amine] were 10-50 Fold, 100 to 1000 nM and 1000 to 10000 nM.
As to `CCn1cc(-c2cccc(Cn3ncc4cnc(Nc5cnn(C)c5)nc43)c2)cn1` [Example 116, 1-(3-(1-ethyl-1H-pyrazol-4-yl)benzyl)-N-(1-methyl-1H-pyrazol-4-yl)-1H-pyrazolo[3,4-d]pyrimidin-6-amine], on Aurora A, the “JAK3/AurA Fold Selectivity” value was 10-50 Fold and the IC50 was 100 to 1000 nM. Besides, the IC50 at JAK2 lay within 1000 to 10000 nM.
In the case of `CC(C)n1cc(-c2cccc(Cn3ncc4cnc(Nc5cnn(C)c5)nc43)c2)cn1` [Example 117, 1-(3-(1-isopropyl-1H-pyrazol-4-yl)benzyl)-N-(1-methyl-1H-pyrazol-4-yl)-1H-pyrazolo[3,4-d]pyrimidin-6-amine], on Aurora A, the “JAK3/AurA Fold Selectivity” value is given as 3-10 Fold. The IC50 at Aurora A is 100 to 1000 nM; on JAK2, at least 10000 nM.
Taken in the same sequence, the figures for `Cn1cc(Nc2ncc3cnn(Cc4cccc(-c5cn[nH]c5)c4)c3n2)cn1` [Example 118, 1-(3-(1H-pyrazol-4-yl)benzyl)-N-(1-methyl-1H-pyrazol-4-yl)-1H-pyrazolo[3,4-d]pyrimidin-6-amine] were 10-50 Fold, 1000 to 10000 nM and at least 10000 nM.
For `CCCn1cc(-c2cccc(Cn3ncc4cnc(Nc5cnn(C)c5)nc43)c2)cn1` [Example 119, N-(1-methyl-1H-pyrazol-4-yl)-1-(3-(1-propyl-1H-pyrazol-4-yl)benzyl)-1H-pyrazolo[3,4-d]pyrimidin-6-amine], in that order: 10-50 Fold, 1000 to 10000 nM and at least 10000 nM.
On to `Cn1cc(Nc2ncc3cnn(Cc4cccc(-c5cnn(CC(N)=O)c5)c4)c3n2)cn1` [Example 120, 2-(4-(3-((6-((1-methyl-1H-pyrazol-4-yl)amino)-1H-pyrazolo[3,4-d]pyrimidin-1-yl)methyl)phenyl)-1H-pyrazol-1-yl)acetamide], for which, at Aurora A, the “JAK3/AurA Fold Selectivity” value was 10-50 Fold and the IC50 is 100 to 1000 nM. Further, the IC50 on JAK2 lay in the range of 1000 to 10000 nM.
